Data taken from patent US20240381872A1, “SUBSTITUTED 2,3-DIHYDRO[1,3]THIAZOLO[4,5-B]PYRIDINES, SALTS THEREOF AND THEIR USE AS HERBICIDALLY ACTIVE SUBSTANCES” (BAYER AKTIENGESELLSCHAFT, priority 2021, published 2024).

Assays:
Assay type in all cases: in vivo
[1] = system: Poa annua (POAAN); experiment: Herbicidal pre-emergence action, section A (Table A7); conditions: visual grading after ca. 3 weeks vs untreated controls; for pest or weed control at 1280 g/ha / pest or weed control at 320 g/ha: Poa annua, pre-emergence, 504 h, read-out: pre-emergence activity against POAAN in %
Summary of the method: (§1)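 Read-out is visual herbicidal effect in percent (100% = plants died, 0% = as control), graded ca. 3 weeks after treatment. Test compounds as WP or EC were applied to covering soil over sown seeds with 0.5% additive, 600 l water per hectare; greenhouse growth.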

[2] = system: Setaria viridis (SETVI); experiment: Herbicidal pre-emergence action, section A (Table A8)
Summary of the method: as §1

[3] = system: Amaranthus retroflexus (AMARE); experiment: Herbicidal pre-emergence action, section A (Table A11); conditions: for pest or weed control at 320 g/ha: application rate 320 g/ha
Summary of the method: as §1

[4] = system: Setaria viridis (SETVI); experiment: Herbicidal post-emergence action, section B (Table B8); conditions: visual rating about 3 weeks after treatment vs untreated controls; for post-emergence activity against SETVI in % / pest or weed control at 1280 g/ha: application rate 1280 g/ha
Summary of the method: (§2)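 Potted weeds in sandy loam are treated post-emergence at the one-leaf stage, 2 to 3 weeks after sowing. The spray is an aqueous WP or EC preparation with 0.5% additive at 600 liters per hectare. Percent activity is assessed by eye after about 3 weeks versus untreated controls.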

[5] = system: Stellaria media (STEME); experiment: Herbicidal post-emergence action, section B (Table B9); conditions: visual rating about 3 weeks after treatment vs untreated controls; for post-emergence activity against STEME in % / pest or weed control at 1280 g/ha: application rate 1280 g/ha; for pest or weed control at 320 g/ha / pest or weed control at 1280 g/ha: Stellaria media, post-emergence, 504 h, read-out: post-emergence activity against STEME in %; for pest or weed control at 320 g/ha: application rate 320 g/ha
Summary of the method: as §2

[6] = system: Amaranthus retroflexus (AMARE); experiment: Herbicidal post-emergence action, section B (Table B11); conditions: visual rating about 3 weeks after treatment vs untreated controls; for post-emergence activity against AMARE in %: application rate 1280 g/ha; for pest or weed control at 320 g/ha: Amaranthus retroflexus, post-emergence, 504 h, application rate 320 g/ha, read-out: post-emergence activity against AMARE in %
Summary of the method: as §2

[7] = system: Alopecurus myosuroides (ALOMY); experiment: Herbicidal pre-emergence action, section C (Table C2); conditions: visual grading after ca. 3 weeks vs untreated controls; for pre-emergence activity against ALOMY in % / pest or weed control at 320 g/ha: application rate 320 g/ha
Text: (§3) Seeds of mono- and dicotyledonous weed plants and crop plants were sown, in plastic or organic planting pots, in sandy loam and covered with soil. The compounds according to the invention, formulated in the form of wettable powders (WP) or as emulsifiable concentrates (EC), were applied to the surface of the covering soil as aqueous suspension or emulsion, with the addition of 0.5% of an additive, at an application rate of 600 l of water/ha (converted). Following treatment, the pots were placed in a greenhouse and kept under optimum growth conditions for the test plants. The visual grading of the damage to the test plants was carried out after ca. 3 weeks in comparison to untreated controls (herbicidal effect in percent (%): 100% effect=plants have died off, 0% effect=as control plants).

[8] = system: Matricaria inodora (MATIN); experiment: Herbicidal pre-emergence action, section C (Table C6); conditions: application rate 320 g/ha, visual grading after ca. 3 weeks
Text: as §3

[9] = system: Echinochloa crus-galli (ECHCG); experiment: Herbicidal post-emergence action, section E (Table E5); conditions: application rate 320 g/ha, visual assessment ca. 3 weeks after spraying
Text: Seeds of mono- and dicotyledonous weed plants and crop plants were sown, in plastic or organic planting pots, in sandy loam, covered with soil and grown in a greenhouse under controlled growth conditions. 2 to 3 weeks after sowing, the test plants were sprayed in the single-leaf stage. The compounds according to the invention, formulated in form of wettable powders (WP) or as emulsifiable concentrates (EC), were sprayed onto the green plant parts as aqueous suspension or emulsion, with the addition of 0.5% of an additive, at an application rate of 600 l of water/ha (converted). The test plants were placed in the greenhouse for ca. 3 weeks under optimum growth conditions, and then the effect of the preparations was assessed visually in comparison with untreated controls (herbicidal effect in percent (%): 100% effect=plants have died off, 0% effect=as control plants).

[10] = system: Zea mays (ZEAMX); experiment: Pre-emergence effects on crop plants, section D (Table D1); conditions: visual grading after ca. 3 weeks
Summary of the method: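 Pre-emergence soil-surface spray, 320 g/ha or below, 600 l water/ha + 0.5% additive; WP/EC formulations; sandy loam; greenhouse; visual % damage vs untreated at ~3 wk.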

[11] = system: Veronica persica (VERPE); experiment: Herbicidal pre-emergence action, section C (Table C10); conditions: Veronica persica, pre-emergence, 504 h, visual grading after ca. 3 weeks, read-out: pre-emergence activity against VERPE in %; for pest or weed control at 80 g/ha: application rate 80 g/ha
Text: as §3

[12] = Amaranthus retroflexus, 504 h, read-out: pre-emergence activity against AMARE in %
[13] = Setaria viridis, post-emergence, 504 h, read-out: post-emergence activity against SETVI in %
[14] = Alopecurus myosuroides, pre-emergence, 504 h, read-out: pre-emergence activity against ALOMY in %
[15] = Setaria viridis, 504 h, application rate 1280 g/ha, read-out: pre-emergence activity against SETVI in %

| SMILES | pre-emergence activity against AMARE in % ([3]; application rate 1280 g/ha) [%] | post-emergence activity against SETVI in % [4] [%] | post-emergence activity against STEME in % [5] [%] | post-emergence activity against AMARE in % [6] [%] | pre-emergence activity against ALOMY in % [7] [%] | pre-emergence activity against ZEAMX in % (crop plant damage) ([10]; application rate 320 g/ha) [%] | pest or weed control at 1280 g/ha ([1]; application rate 1280 g/ha) [%] | pest or weed control at 320 g/ha [3, 12] [%] | pest or weed control at 1280 g/ha [4, 13] [%] | pest or weed control at 320 g/ha [5] [%] | pest or weed control at 320 g/ha [6] [%] | pest or weed control at 320 g/ha [7, 14] [%] | pre-emergence activity against ZEAMX in % (crop plant damage) ([10]; application rate 80 g/ha) [%] | pest or weed control at 1280 g/ha [2, 15] [%] | pest or weed control at 1280 g/ha [5] [%] | pest or weed control at 80 g/ha [11] [%] | pest or weed control at 320 g/ha ([1]; application rate 320 g/ha) [%] | further results |
| --- | --- | --- | --- | --- | --- | --- | --- | --- | --- | --- | --- | --- | --- | --- | --- | --- | --- | --- |
| COC(=O)CCC(=O)N1CSc2cc(Cl)c(-c3ccccc3F)nc21 [Example I-003] | 90 | 90 | 90 | 90 | 80 |  |  |  |  |  |  |  |  |  |  |  |  | pre-emergence activity against POAAN in % ([1]; application rate 1280 g/ha): 100%; pre-emergence activity against SETVI in % ([2]; application rate 320 g/ha): 100%; pre-emergence activity against MATIN in % [8]: 80%; post-emergence activity against ECHCG in % [9]: 80% |
| BN1CSc2cc(Br)c(-c3ccccc3C)nc21 [Example I-011] | 90 | 90 | 90 | 90 | 90 | 10 |  |  |  |  |  |  |  |  |  |  |  | pre-emergence activity against POAAN in % ([1]; application rate 320 g/ha): 100%; pre-emergence activity against SETVI in % ([2]; application rate 1280 g/ha): 90% |
| Clc1ccccc1-c1nc2c(cc1Br)SCN2 [Example I-041, 6-bromo-5-(2-chlorophenyl)-2,3-dihydro[1,3]thiazolo[4,5-b]pyridine] |  |  |  |  |  |  | 100 | 90 | 90 | 90 | 90 | 80 | 0 |  |  |  |  | pest or weed control at 320 g/ha ([2]; Setaria viridis, 504 h, application rate 320 g/ha, read-out: pre-emergence activity against SETVI in %): 100% |
| CCc1ccccc1-c1nc2c(cc1C)[S+]([O-])CN2 (stereo not drawn) [Example I-047] |  |  |  |  |  | 20 | 100 |  |  |  | 90 |  |  | 100 | 90 | 80 |  | pest or weed control at 1280 g/ha ([3]; Amaranthus retroflexus, 504 h, application rate 1280 g/ha, read-out: pre-emergence activity against AMARE in %): 90% |
| CC(=O)N1CSc2cc(Br)c(-c3ccccc3Cl)nc21 [Example I-055, 1-[6-bromo-5-(2-chlorophenyl)[1,3]thiazolo[4,5-b]pyridin-3(2H)-yl]ethanone] |  |  |  |  |  | 0 |  | 90 | 90 |  | 90 | 80 |  | 100 | 90 |  | 100 | pest or weed control at 320 g/ha ([11]; application rate 320 g/ha): 80% |
| CCS(=O)(=O)N1CSc2cc(C)c(-c3ccccc3F)nc21 [Example I-060, 3-(ethylsulfonyl)-5-(2-fluorophenyl)-6-methyl-2,3-dihydro[1,3]thiazolo[4,5-b]pyridine] |  |  |  |  |  |  |  | 90 |  | 90 | 90 |  | 20 | 100 |  | 90 | 100 | pest or weed control at 320 g/ha ([4]; Setaria viridis, post-emergence, 504 h, application rate 320 g/ha, read-out: post-emergence activity against SETVI in %): 90%; pest or weed control at 80 g/ha ([7]; Alopecurus myosuroides, pre-emergence, 504 h, application rate 80 g/ha, read-out: pre-emergence activity against ALOMY in %): 100%; pest or weed control at 320 g/ha ([8]; Tripleurospermum inodorum, pre-emergence, 504 h, read-out: pre-emergence activity against MATIN in %): 90% |
